In PubChem BioAssay AID179 (DTP/NCI, 2004):
Calls of active or inactive are those of the source.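 Rule for the calls: active = compounds giving half or more protection of infected cells from virus-caused growth loss, again on retest; inactive = the rest.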

System: CEM cells HIV-1 protection, formazan growth assay
Test: NCI AIDS Antiviral Assay
Details: for IC50: measured here: growth of uninfected CEM cells
Outline: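 Steps: treat uninfected and HIV-1-infected human CEM cells at five drug levels; quantify growth by soluble formazan; retest any compound reaching 50% protection; classify actives from the retest.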

COCC1=C(O)C=C2Oc3c(C(C)=O)c(O)c(C)c(O)c3[C@@]2(C)C1=O
EC50: > 100 µM | IC50: 12 µM

ClCc1c(-c2ccccc2)nn(-c2ccccc2)c1CCl
EC50: > 200 µM | IC50: 6.17 µM

NC(=O)CNC(=O)c1ccccc1SC(=O)NCCCCl
EC50: 3.72 µM | IC50: 64.6 µM

CN1C(=O)C23CCCN2C(=O)C1(C)SC(=N)S3 (centres undefined)
EC50: > 200 µM | IC50: > 200 µM

O=C(O)c1ccccc1/C=C1\Cc2ccccc2C1=O
EC50: > 200 µM | IC50: 120 µM

CC1CCCC(C(O)CC2CC(=O)NC(=O)C2)C1O (centres undefined)
EC50: > 200 µM | IC50: > 200 µM

Nc1nc(-c2ccccc2)nc(N)c1N=O
EC50: > 200 µM | IC50: 2.57 µM

O=C(CCl)N1CCN(c2ccccc2)CC1
EC50: > 1050 µM | IC50: 1.2 µM

C/C(=N/N=C(\[O-])c1ccncc1)C(F)(F)F.C/C(=N\N=C(/[O-])c1ccncc1)C(F)(F)F.[Ni+2]
EC50: > 200 µM | IC50: 89.1 µM

C=C1C[C@@H]2O[C@H]3[C@H]4[C@@H](C[C@@H](C)[C@@H](OC(C)=O)[C@H]42)[C@@H](C)CO[C@@]3(C)[C@H](OC(=O)CCCCCCC)CC1=O
EC50: > 200 µM | IC50: 10 µM

Clc1nc(Cl)nc(Nc2cccc3ccccc23)n1
EC50: > 200 µM | IC50: 107 µM

CC(=O)NC(CCCNC(=O)N(CCCl)N=O)C(=O)NCc1ccccc1 (centres undefined)
EC50: > 631 µM | IC50: 69.2 µM

NC1C2C(CC(=O)O)OCC=C3CN4CCC1(C(=O)C(=O)O)C4CC32 (centres undefined)
EC50: > 28.8 µM | IC50: > 28.8 µM

COc1ccc(/C=C/c2ccnc3ccccc23)cc1
EC50: 0.0631 µM | IC50: 14.1 µM

COc1ccccc1/C=C1\S/C(=N/Nc2nc(C)c(C(C)=O)s2)NC1=O
EC50: > 200 µM | IC50: 112 µM

N#C/C(=C\c1ccc(-c2ccccc2)cc1)c1ccc(Cl)cc1
EC50: > 100 µM | IC50: > 100 µM

C[N+](C)([O-])CCCNc1ccnc2cccc([N+](=O)[O-])c12
EC50: > 200 µM | IC50: 27.5 µM

CN(C)CC1CCCC(CN(C)C)C1OC(=O)c1ccccc1 (centres undefined)
outcome: inactive

COC(=O)c1onc(-c2c(OC)cc(OC)cc2OC)c1C(=O)OC
EC50: > 141 µM | IC50: 115 µM

CSc1n[nH]c(N)c1C(=O)Nc1ccc(C)cc1
EC50: > 200 µM | IC50: 95.5 µM

C=C1C(=O)OC2/C=C(\COC(C)=O)CCC(OC(C)=O)C3=CC(OC3=O)C12 (centres undefined)
EC50: > 36.3 µM | IC50: 7.24 µM

CCCCN(CCCC)CN1C(=O)/C(=C/c2ccc(NC(C)=O)cc2)NC1=S
EC50: > 200 µM | IC50: > 200 µM

O=C1C(=Cc2cccc(Br)c2)C(=O)c2ccccc21
EC50: 15.5 µM | IC50: 22.9 µM

c1ccc2c(c1)cc(C1NCCc3[nH]cnc31)c1ccccc12 (centres undefined)
EC50: > 24 µM | IC50: 15.1 µM

O=C1C2CCCC1C1/C(=[N+](/[O-])O)C=C([N+](=O)[O-])C2C1[N+](=O)[O-] (centres undefined)
EC50: > 234 µM | IC50: > 234 µM

CSC1(C)CC2C(CC1N1CCCCC1)C2(C)C (centres undefined)
EC50: > 93.3 µM | IC50: 44.7 µM

COC(=O)c1cc(C(=CCCO)c2cc(Cl)c(OC)c(C(=O)OC)c2)cc(Cl)c1OC
EC50: > 200 µM | IC50: 24.5 µM

CC1(C)SSC(C)(C)SS1
EC50: > 200 µM | IC50: > 200 µM

O=C1CCCc2cc3c(cc21)CC1(C3)Cc2ccc3c(c2C1)C(=O)CCC3 (centres undefined)
EC50: > 200 µM | IC50: 16.2 µM

CC(C)(C)OC(=O)NC(Cc1ccc(OCc2ccccc2)cn1)C(N)=O (centres undefined)
EC50: > 200 µM | IC50: > 100 µM

CC1OC(OC2C(Oc3cc(O)c4c(c3)OC(c3ccc(O)cc3)CC4=O)OC(CO)C(O)C2O)C(O)C(O)C1O (centres undefined)
EC50: > 200 µM | IC50: > 200 µM

CC(=O)c1c2c(cc3c1CC1(Cc4cc5c(cc4C1)CCCC5)C3)CCCC2
EC50: > 200 µM | IC50: 34.7 µM

Nc1nn2c(=O)c3ccccc3nc2s1
EC50: > 200 µM | IC50: 89.1 µM

CC1=CC(C)(C)N=C2SC(COc3ccccc3)=NN12
EC50: > 200 µM | IC50: 34.7 µM

O=C(O)O
outcome: inactive

COc1ccc(C2CC(=O)c3c(OC(C)=O)cc(OC(C)=O)cc3O2)cc1OC(C)=O (centres undefined)
EC50: > 200 µM | IC50: 7.76 µM

O=C1C(S(=O)(=O)c2ccccc2)=C(CS(=O)(=O)c2ccccc2)[C@@H](OCc2ccccc2)[C@@H]1OCc1ccccc1
EC50: > 20 µM | IC50: 9.55 µM

[pH]1p2[pH]p3p1p3[pH]2.c1cc[c]([Ge]([c]2ccccc2)[c]2ccccc2)cc1.c1cc[c]([Ge]([c]2ccccc2)[c]2ccccc2)cc1.c1cc[c]([Ge]([c]2ccccc2)[c]2ccccc2)cc1
outcome: inactive

CC(=O)OC1(C#N)CC2OC1C1N=NN(C(=O)OC(C)(C)C)C21 (centres undefined)
EC50: > 155 µM | IC50: 14.8 µM

COc1ccc(S(=O)(=O)O)cc1NS(=O)(=O)c1ccc(C)cc1
EC50: > 200 µM | IC50: > 200 µM

O=C(Nc1cc2cc([N+](=O)[O-])ccc2oc1=O)c1cccs1
EC50: > 61.7 µM | IC50: > 61.7 µM
